# Like-named read-outs stand apart in the source and are kept apart here.
# Tests used:
# [1] = Pharmacokinetic evaluation after intravenous or gavage administration in rats; assay type: in vivo, SD rats
# Protocol: (§1) The LC-MS/MS system comprises Agilent 1200 series vacuum degassing furnace, quaternary pumps, well-plate autosampler, thermostatted column compartment, the API4000Qtrap Triple Quadrupole Mass Spectrometer with an electrospray ionization (ESI) source. Quantitative analysis was carried out using MRM mode. The parameters for MRM transitions are in Table 2.
# (§2) Analysis was carried out on waters xbridge C18 (2.1×50 mm, […] column, 0.5 μL of sample), the analytic conditions are mobile phases cosisting of water+2 mM ammonium formate+0.1% formic acid (Phase A) and methanol+2 mM ammonium formate+0.1% formic acid (Phase B). The flow rate was 0.4 mL/min. And the gradient of Mobile phase was in Table 3.
# (§3) Each animal species was divided into two groups: one was administered intravenously and the other was administered intragastrically. The compounds disclosed herein were administered in form of a solution containing 5% DMSO+5% Kolliphor HS15+90% Saline. For the group of intravenous administration, the administration dose was 1 mg/kg, and vein blood samples (0.3 ml) were collected at the time points of 0.083, 0.25, 0.5, 1.0, 2.0, 4.0, 6.0, 8.0 and 24 h after drug administration, then plasma solutions were collected by centrifuging each blood sample at 3000 rpm or 4000 rpm for 10 minutes and kept at −20° C. or −70° C. For the group of intragastric administration, the administration dose was 5 mg/kg, and vein blood samples (0.3 mL) were collected at the time points of 0.25, 0.5, 1.0, 2.0, 4.0, 6.0, 8.0 and 24 h after drug administration, then plasma solutions were collected by centrifuging each blood sample at 3000 rpm or 4000 rpm for 10 minutes and kept at −20° C. or −70° C.
# (§4) 20 μL of plasma was blended with 120 μl, 50 ng/ml propranolol standard water solution, then the mixture was extracted with 1.0 mL methyl tert-butyl ether (MTBE), 0.7 mL of supernatant was dried by blow with nitrogen and then dissolved again with 220 μL methanol water (methanol/water (v/v)=1/1). LC-MS/MS method was used to detect the concentration of the target compounds, and […] was used to calculate the pharmacokinetic parameters.
# [2] = Evaluation of blood-brain barrier (BBB) after peritoneal injection in rats; assay type: in vivo; settings: SD rats, intraperitoneal 10 mg/kg; for Kp at 15 min / Kp at 60 min / Kp at 120 min: Sprague-Dawley, rat
# Protocol: The analysis method was the same as example B.
# The experiment was divided into three groups: 15 min group, 1 h group and 2 h group. After overnight fasting for 12 hours, SD rats were administered by intraperitoneal injection with the compound of the invention in the form of 5% DMSO+5% Kolliphor HS15+90% Saline solution at a dose of 10 mg/kg. Blood, cerebrospinal fluid and brain tissue were collected at 15 minutes, 1 hour and 2 hours respectively after administration. Blood samples were centrifuged at 3,000 or 4,000 rpm for 10 minutes. The plasma solution was collected and kept at −20° C. or −70° C. The cerebrospinal fluid was processed using a protein precipitation method. A certain volume of cerebrospinal fluid sample were precisely absorbed and precipitated by adding 5 times acetonitrile solution containing internal standard. The mixture was mixed well by vortexing, and then centrifuged for 2 minutes at 12,000 rpm at 4° C., the supernatant was kept at −80° C. Brain tissue was homogenized with 2 times methanol solution, and centrifuged to get the supernatant, the supernatant were precipitated by adding 5 times acetonitrile solution containing internal standard.
# The mixture was mixed well by vortexing, and then centrifuged for 2 minutes at 12,000 rpm at 4° C., the supernatant was kept at −80° C. LC-MS/MS method was used to detect the concentration of target compounds, BBB permeability was calculated and statistical analysis was carried out.
# [3] = Pharmacokinetic evaluation after intravenous or gavage administration in dogs; assay type: in vivo, Beagle dogs; settings: for AUC(0-inf) / AUC(0-t) / Cmax / MRT inf / Tmax / clearance / half-life: beagle, dog, plasma
# Protocol: as §1, §2, §3, §4
# [4] = SD, rat, plasma, iv, i.v group, 1 mg/kg
# [5] = SD, rat, plasma, po, i.g group, 5 mg/kg
# [6] = brain, 15 min, read-out: T/P Ratio Brain (brain tissue)
# [7] = brain, 60 min, read-out: T/P Ratio Brain (brain tissue)
# [8] = brain, 120 min, read-out: T/P Ratio Brain (brain tissue)
# [9] = cerebrospinal fluid, 15 min, read-out: T/P Ratio CSF (cerebrospinal fluid)
# [10] = cerebrospinal fluid, 60 min, read-out: T/P Ratio CSF (cerebrospinal fluid)
# [11] = cerebrospinal fluid, 120 min, read-out: T/P Ratio CSF (cerebrospinal fluid)
smiles,measurement,setting,value
"NC(=O)[C@@H]1C[C@H](F)CN1Cc1ccc(OCc2cccc(F)c2)cc1 [Example 1, (2S,4S)-4-fluoro-1-(4-(3-fluorobenzyloxy)benzyl)pyrrolidine-2-formamide]",AUC(0-inf),[1]; [4],507 ng·h/mL
same,Cmax,[1]; [4],690 ng/mL
same,MRT inf,[1]; [4],41.6 min
same,Tmax,[1]; [4],4.98 min
same,AUC(0-inf),[1]; [5],1400 ng·h/mL
same,AUC(0-t),[1]; [5],1400 ng·h/mL
same,Cmax,[1]; [5],1000 ng/mL
same,MRT inf,[1]; [5],64.8 min
same,Tmax,[1]; [5],20 min
same,half-life,[1]; [5],33.9 min
same,F,"[1]; i.g group, 5 mg/kg",55.2%
same,AUClast,"[1]; i.v group, 1 mg/kg",505 ng·h/mL
same,Cl,"[1]; i.v group, 1 mg/kg",32.9 mL/min/kg
same,T1/2,"[1]; i.v group, 1 mg/kg",40.2 min
same,Conc. Brain (brain tissue),[2]; 15 min,10243.33 ng/g or ng/ml
same,Conc. CSF (cerebrospinal fluid),[2]; 15 min,147.67 ng/g or ng/ml
same,Conc. Plasm (plasma),[2]; 15 min,5203.33 ng/g or ng/ml
same,Conc. Brain (brain tissue),[2]; 60 min,9273.33 ng/g or ng/ml
same,Conc. CSF (cerebrospinal fluid),[2]; 60 min,61.9 ng/g or ng/ml
same,Conc. Plasm (plasma),[2]; 60 min,2073.33 ng/g or ng/ml
same,Conc. Brain (brain tissue),[2]; 120 min,2890 ng/g or ng/ml
same,Conc. CSF (cerebrospinal fluid),[2]; 120 min,34.4 ng/g or ng/ml
same,Conc. Plasm (plasma),[2]; 120 min,864.33 ng/g or ng/ml
same,Kp at 15 min,[2]; [6],1.97
same,Kp at 60 min,[2]; [7],4.47
same,Kp at 120 min,[2]; [8],3.34
same,Kp at 15 min,[2]; [9],0.028
same,Kp at 60 min,[2]; [10],0.03
same,Kp at 120 min,[2]; [11],0.04
same,AUC(0-inf),"[3]; iv, i.v group, 1 mg/kg",1500 ng·h/mL
same,AUC(0-t),"[3]; iv, i.v group, 1 mg/kg",1480 ng·h/mL
same,Cmax,"[3]; iv, i.v group, 1 mg/kg",1230 ng/mL
same,MRT inf,"[3]; iv, i.v group, 1 mg/kg",2.77 h
same,Tmax,"[3]; iv, i.v group, 1 mg/kg",4.98 min
same,clearance,"[3]; iv, i.v group, 1 mg/kg",11.1 mL/min/kg
same,half-life,"[3]; iv, i.v group, 1 mg/kg",303 min
same,AUC(0-inf),"[3]; po, i.g group, 5 mg/kg",4990 ng·h/mL
same,AUC(0-t),"[3]; po, i.g group, 5 mg/kg",4930 ng·h/mL
same,Cmax,"[3]; po, i.g group, 5 mg/kg",1730 ng/mL
same,MRT inf,"[3]; po, i.g group, 5 mg/kg",2.98 h
same,Tmax,"[3]; po, i.g group, 5 mg/kg",50 min
same,half-life,"[3]; po, i.g group, 5 mg/kg",196 min
same,F,"[3]; i.g group, 5 mg/kg",66.5%
"NC(=O)[C@@H]1C[C@H](F)CN1Cc1ccc(OCc2cccc(F)c2)cc1F [Example 3, (2S,4S)-4-fluoro-1-(2-fluoro-4-(3-fluorobenzyloxy)benzyl)pyrrolidine-2-formamide]",AUC(0-inf),[1]; [4],582 ng·h/mL
same,AUC(0-t),[1]; [4],582 ng·h/mL
same,Cmax,[1]; [4],681 ng/mL
same,MRT inf,[1]; [4],46.7 min
same,Tmax,[1]; [4],4.98 min
same,clearance,[1]; [4],28.7 mL/min/kg
same,half-life,[1]; [4],42.7 min
same,AUC(0-inf),[1]; [5],1550 ng·h/mL
same,AUC(0-t),[1]; [5],1520 ng·h/mL
same,Cmax,[1]; [5],700 ng/mL
same,MRT inf,[1]; [5],127 min
same,Tmax,[1]; [5],37.5 min
same,half-life,[1]; [5],73.8 min
same,F,"[1]; i.g group, 5 mg/kg",53.3%
same,Conc. Brain (brain tissue),[2]; 15 min,8610 ng/g or ng/ml
same,Conc. CSF (cerebrospinal fluid),[2]; 15 min,56.67 ng/g or ng/ml
same,Conc. Plasm (plasma),[2]; 15 min,3496.67 ng/g or ng/ml
same,Conc. Brain (brain tissue),[2]; 60 min,5253.33 ng/g or ng/ml
same,Conc. CSF (cerebrospinal fluid),[2]; 60 min,39.77 ng/g or ng/ml
same,Conc. Plasm (plasma),[2]; 60 min,1930 ng/g or ng/ml
same,Conc. Brain (brain tissue),[2]; 120 min,1576.67 ng/g or ng/ml
same,Conc. CSF (cerebrospinal fluid),[2]; 120 min,13.05 ng/g or ng/ml
same,Conc. Plasm (plasma),[2]; 120 min,686.67 ng/g or ng/ml
same,Kp at 15 min,[2]; [6],2.46
same,Kp at 60 min,[2]; [7],2.72
same,Kp at 120 min,[2]; [8],2.3
same,Kp at 15 min,[2]; [9],0.016
same,Kp at 60 min,[2]; [10],0.021
same,Kp at 120 min,[2]; [11],0.019
same,AUC(0-inf),"[3]; iv, i.v group, 1 mg/kg",979 ng·h/mL
same,AUC(0-t),"[3]; iv, i.v group, 1 mg/kg",977 ng·h/mL
same,Cmax,"[3]; iv, i.v group, 1 mg/kg",1490 ng/mL
same,MRT inf,"[3]; iv, i.v group, 1 mg/kg",0.871 h
same,Tmax,"[3]; iv, i.v group, 1 mg/kg",4.98 min
same,clearance,"[3]; iv, i.v group, 1 mg/kg",17 mL/min/kg
same,half-life,"[3]; iv, i.v group, 1 mg/kg",67.8 min
same,AUC(0-inf),"[3]; po, i.g group, 5 mg/kg",2450 ng·h/mL
same,AUC(0-t),"[3]; po, i.g group, 5 mg/kg",2440 ng·h/mL
same,Cmax,"[3]; po, i.g group, 5 mg/kg",1380 ng/mL
same,MRT inf,"[3]; po, i.g group, 5 mg/kg",1.44 h
same,Tmax,"[3]; po, i.g group, 5 mg/kg",30 min
same,half-life,"[3]; po, i.g group, 5 mg/kg",65.4 min
same,F,"[3]; i.g group, 5 mg/kg",50.1%
